Source: patent US6737383B1, “Herbicidal oxadiazolidines” (priority 1999, dated 2004)

Assays:
rape = assay: Test B pre/postemergence rape; type: in vivo, Brassica napus
Outline: (§1)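 Response is a visual 0-to-10 score relative to untreated plants, where 0 means no effect and 10 means complete control, taken twelve to sixteen days after application. Treatments went onto soil at planting and onto foliage of 1- to 4-leaf plants, using a surfactant-containing non-phytotoxic solvent.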

sugar beet = assay: Test B pre/postemergence sugar beet; type: in vivo, Beta vulgaris
Outline: as §1

surinam grass = assay: Test B pre/postemergence surinam grass; type: in vivo, Brachiaria decumbens
Outline: as §1

crabgrass = assay: Test B pre/postemergence crabgrass; type: in vivo, Digitaria sanguinalis
Outline: as §1

purple nutsedge = assay: Test B pre/postemergence purple nutsedge; type: in vivo, Cyperus rotundus
Outline: as §1

bedstraw = assay: Test B pre/postemergence bedstraw; type: in vivo, Galium aparine
Outline: as §1

wild oat = assay: Test B pre/postemergence wild oat; type: in vivo, Avena fatua
Outline: as §1

corn = assay: Test B pre/postemergence corn; type: in vivo, Zea mays
Outline: as §1

morningglory = assay: Test B pre/postemergence morningglory; type: in vivo, Ipomoea hederacea
Outline: as §1

giant foxtail = assay: Test B pre/postemergence giant foxtail; type: in vivo, Setaria faberii
Outline: as §1

pigweed = assay: Test B pre/postemergence pigweed; type: in vivo, Amaranthus retroflexus
Outline: as §1

soybean = assay: Test B pre/postemergence soybean; type: in vivo, Glycine max
Outline: as §1

blackgrass = assay: Test B pre/postemergence blackgrass; type: in vivo, Alopecurus myosuroides
Outline: as §1

wheat = assay: Test B pre/postemergence wheat; type: in vivo, Triticum aestivum
Outline: as §1

cocklebur = assay: Test B pre/postemergence cocklebur; type: in vivo, Xanthium strumarium
Outline: as §1

velvetleaf = assay: Test B pre/postemergence velvetleaf; type: in vivo, Abutilon theophrasti
Outline: as §1

[1] = Postemergence, Rate 62 g/ha, scale 0 to 10, 0 is no effect, 10 is complete control
[2] = Postemergence, Rate 125 g/ha, scale of 0 to 10 where 0 is no effect and 10 is complete control
[3] = Preemergence, Rate 125 g/ha, scale of 0 to 10 where 0 is no effect and 10 is complete control
[4] = Preemergence, Rate 250 g/ha, scale 0 (no effect) to 10 (complete control)
[5] = Rate 62 g/ha, Preemergence, scale 0 to 10
[6] = Rate 250 g/ha, Postemergence, scale 0 to 10, 0 is no effect, 10 is complete control
[7] = Rate 500 g/ha, Postemergence, scale 0 to 10, 0 is no effect, 10 is complete control
[8] = Rate 500 g/ha, Preemergence, scale 0 to 10 (0 no effect, 10 complete control)

SMILES: CC(C)N(C(=O)n1oc(=O)n(CC(F)F)c1=O)c1ccccc1 [Compound 746]
- Plant response rating, Rape (rape; [1]): 4
- Rape plant response rating (rape; [2]): 4
- Plant response rating, Rape (rape; [3]): 9
- Rape plant response rating (rape; [4]): 9
- Rape plant response rating (rape; [5]): 2
- Rape plant response rating (rape; [6]): 7
- Rape plant response rating (rape; [7]): 7
- Plant response rating, Sugarbeets (sugar beet; [1]): 0
- Sugarbeets plant response rating (sugar beet; [2]): 0
- Plant response rating, Sugarbeets (sugar beet; [3]): 7
- Sugarbeets plant response rating (sugar beet; [4]): 7
- Sugarbeets plant response rating (sugar beet; [5]): 5
- Sugarbeets plant response rating (sugar beet; [6]): 4
- Sugarbeets plant response rating (sugar beet; [7]): 4
- Plant response rating, B. signalgrass (surinam grass; [1]): 3
- B. signalgrass plant response rating (surinam grass; [2]): 4
- B. signalgrass plant response rating (surinam grass; Preemergence, Rate 62 g/ha, scale of 0 to 10 where 0 is no effect and 10 is complete control): 7
- Plant response rating, B. signalgrass (surinam grass; [3]): 9
- B. signalgrass plant response rating (surinam grass; [4]): 9
- B. signalgrass plant response rating (surinam grass; [6]): 6
- B. signalgrass plant response rating (surinam grass; [7]): 8
- Plant response rating, Crabgrass (crabgrass; [1]): 7
- Crabgrass plant response rating (crabgrass; [2]): 9
- Plant response rating, Crabgrass (crabgrass; [3]): 10
- Crabgrass plant response rating (crabgrass; [4]): 10
- Crabgrass plant response rating (crabgrass; [5]): 9
- Crabgrass plant response rating (crabgrass; [6]): 9
- Crabgrass plant response rating (crabgrass; [7]): 10
- Crabgrass plant response rating (crabgrass; [8]): 10
- Plant response rating, Nutsedge (purple nutsedge; [1]): 0
- Nutsedge plant response rating (purple nutsedge; [2]): 0
- Plant response rating, Nutsedge (purple nutsedge; [3]): 3
- Nutsedge plant response rating (purple nutsedge; [5]): 0
- Nutsedge plant response rating (purple nutsedge; [6]): 2
- Nutsedge plant response rating (purple nutsedge; [7]): 4
- Nutsedge plant response rating (purple nutsedge; [8]): 5
- Bedstraw plant response rating (bedstraw; [2]): 7
- Bedstraw plant response rating (bedstraw; [5]): 8
- Bedstraw plant response rating (bedstraw; [6]): 8
- Bedstraw plant response rating (bedstraw; [7]): 9
- Plant response rating, Wild oats (wild oat; [1]): 0
- Wild oats plant response rating (wild oat; [2]): 2
- Plant response rating, Wild oats (wild oat; [3]): 10
- Wild oats plant response rating (wild oat; [4]): 10
- Wild oats plant response rating (wild oat; [5]): 7
- Wild oats plant response rating (wild oat; [6]): 6
- Wild oats plant response rating (wild oat; [7]): 7
- Plant response rating, Corn (corn; [1]): 0
- Corn plant response rating (corn; [2]): 0
- Plant response rating, Corn (corn; [3]): 3
- Corn plant response rating (corn; [4]): 3
- Corn plant response rating (corn; [5]): 0
- Corn plant response rating (corn; [6]): 4
- Corn plant response rating (corn; [7]): 5
- Corn plant response rating (corn; [8]): 4
- Plant response rating, Morningglory (morningglory; [1]): 4
- Morningglory plant response rating (morningglory; [2]): 8
- Plant response rating, Morningglory (morningglory; [3]): 4
- Morningglory plant response rating (morningglory; [4]): 6
- Morningglory plant response rating (morningglory; [5]): 0
- Morningglory plant response rating (morningglory; [6]): 10
- Morningglory plant response rating (morningglory; [7]): 10
- Morningglory plant response rating (morningglory; [8]): 8
- Plant response rating, Giant foxtail (giant foxtail; [1]): 6
- Giant foxtail plant response rating (giant foxtail; [2]): 8
- Plant response rating, Giant foxtail (giant foxtail; [3]): 10
- Giant foxtail plant response rating (giant foxtail; [4]): 10
- Giant foxtail plant response rating (giant foxtail; [5]): 10
- Giant foxtail plant response rating (giant foxtail; [6]): 9
- Giant foxtail plant response rating (giant foxtail; [7]): 9
- Giant foxtail plant response rating (giant foxtail; [8]): 10
- Plant response rating, Redroot pigweed (pigweed; [1]): 6
- Redroot pigweed plant response rating (pigweed; [2]): 5
- Plant response rating, Redroot pigweed (pigweed; [3]): 10
- Redroot pigweed plant response rating (pigweed; [4]): 10
- Redroot pigweed plant response rating (pigweed; [5]): 10
- Redroot pigweed plant response rating (pigweed; [6]): 8
- Redroot pigweed plant response rating (pigweed; [7]): 9
- Plant response rating, Soybean (soybean; [1]): 2
- Soybean plant response rating (soybean; [2]): 3
- Plant response rating, Soybean (soybean; [3]): 0
- Soybean plant response rating (soybean; [4]): 5
- Soybean plant response rating (soybean; [5]): 0
- Soybean plant response rating (soybean; [6]): 4
- Soybean plant response rating (soybean; [7]): 6
- Soybean plant response rating (soybean; [8]): 5
- Plant response rating, Blackgrass (blackgrass; [1]): 5
- Blackgrass plant response rating (blackgrass; [2]): 7
- Plant response rating, Blackgrass (blackgrass; [3]): 9
- Blackgrass plant response rating (blackgrass; [4]): 10
- Blackgrass plant response rating (blackgrass; [5]): 9
- Blackgrass plant response rating (blackgrass; [6]): 8
- Blackgrass plant response rating (blackgrass; [7]): 8
- Plant response rating, Wheat (wheat; [1]): 0
- Wheat plant response rating (wheat; [2]): 4
- Plant response rating, Wheat (wheat; [3]): 7
- Wheat plant response rating (wheat; [4]): 8
- Wheat plant response rating (wheat; [5]): 6
- Wheat plant response rating (wheat; [7]): 6
- Plant response rating, Cocklebur (cocklebur; [1]): 0
- Cocklebur plant response rating (cocklebur; [2]): 2
- Plant response rating, Cocklebur (cocklebur; [3]): 0
- Cocklebur plant response rating (cocklebur; [4]): 0
- Cocklebur plant response rating (cocklebur; [6]): 2
- Cocklebur plant response rating (cocklebur; [7]): 4
- Cocklebur plant response rating (cocklebur; [8]): 4
- Plant response rating, Velvetleaf (velvetleaf; [1]): 2
- Velvetleaf plant response rating (velvetleaf; [2]): 6
- Plant response rating, Velvetleaf (velvetleaf; [3]): 6
- Velvetleaf plant response rating (velvetleaf; [4]): 7
- Velvetleaf plant response rating (velvetleaf; [5]): 4
- Velvetleaf plant response rating (velvetleaf; [6]): 6
- Velvetleaf plant response rating (velvetleaf; [7]): 7
- Velvetleaf plant response rating (velvetleaf; [8]): 8
